# Patent US4897506A, “Isolation of alpha-l-aspartyl-l-phenylalanine methyl ester from aqueous medium” (Mitsui Toatsu Chemicals, Incorporated, priority 1987, dated 1990)
# Residues, ends and D or L forms follow the SMILES beside them.
# Assay: Method for Testing Solubilization: time required for completely dissolving crushed α-APM sample in water
# Format: physicochemical
# Details: 26±2° C.; for time required for completely dissolving the sample (solubilization test): 250 mg crushed sample in 250 ml purified water, magnetic stirrer 350-360 rpm, stirring and standing alternated every 30 seconds; for Solubilization (minutes), Table 1 / Solubilization (min), Table 2: 250 mg in 250 ml purified water, stirring/standing every 30 seconds
# Description: Crushed α-APM sample (250 mg) is poured into 250 ml of purified water at 26±2° C. with stirring by a magnetic stirrer at 350- 360 rpm. Stirring and standing are alternately repeated for every 30 seconds and the time required for completely dissolving the sample is measured.
Compound,time required for completely dissolving the sample (solubilization test),also measured
"COC(=O)[C@H](Cc1ccccc1)NC(=O)[C@@H](N)CC(=O)O [Example 1, α-L-aspartyl-L-phenylalanine methyl ester] (H-Asp-Phe-OMe)",≤ 5 min,–
"COC(=O)[C@H](Cc1ccccc1)NC(=O)[C@@H](N)CC(=O)O [Example 2, α-L-aspartyl-L-phenylalanine methyl ester] (H-Asp-Phe-OMe)",≤ 5 min,–
"COC(=O)[C@H](Cc1ccccc1)NC(=O)[C@@H](N)CC(=O)O [Example 3, α-L-aspartyl-L-phenylalanine methyl ester] (H-Asp-Phe-OMe)",≤ 5 min,–
"COC(=O)[C@H](Cc1ccccc1)NC(=O)[C@@H](N)CC(=O)O [Example 4, α-L-aspartyl-L-phenylalanine methyl ester] (H-Asp-Phe-OMe)",≤ 5 min,–
"COC(=O)[C@H](Cc1ccccc1)NC(=O)[C@@H](N)CC(=O)O [Example 5, α-L-aspartyl-L-phenylalanine methyl ester] (H-Asp-Phe-OMe)",–,"Solubilization (minutes), Table 1 (listed as Ex. 5): 6.5 min"
"COC(=O)[C@H](Cc1ccccc1)NC(=O)[C@@H](N)CC(=O)O [Example 6, α-L-aspartyl-L-phenylalanine methyl ester] (H-Asp-Phe-OMe)",–,"Solubilization (minutes), Table 1 (listed as Ex. 6): 6.5 min"
"COC(=O)[C@H](Cc1ccccc1)NC(=O)[C@@H](N)CC(=O)O [Example 7, α-L-aspartyl-L-phenylalanine methyl ester] (H-Asp-Phe-OMe)",–,"Solubilization (minutes), Table 1 (listed as Ex. 7): 4.5 min"
"COC(=O)[C@H](Cc1ccccc1)NC(=O)[C@@H](N)CC(=O)O [Example 8, α-L-aspartyl-L-phenylalanine methyl ester] (H-Asp-Phe-OMe)",–,"Solubilization (minutes), Table 1 (listed as Ex. 8): 5.5 min"
"COC(=O)[C@H](Cc1ccccc1)NC(=O)[C@@H](N)CC(=O)O [Example 9, α-L-aspartyl-L-phenylalanine methyl ester] (H-Asp-Phe-OMe)",–,"Solubilization (minutes), Table 1 (listed as Ex. 9): 7.5 min"
"COC(=O)[C@H](Cc1ccccc1)NC(=O)[C@@H](N)CC(=O)O [Example 10, α-L-aspartyl-L-phenylalanine methyl ester] (H-Asp-Phe-OMe)",–,"Solubilization (minutes), Table 1 (listed as Ex. 10): 5.5 min"
"COC(=O)[C@H](Cc1ccccc1)NC(=O)[C@@H](N)CC(=O)O [Example 11, α-L-aspartyl-L-phenylalanine methyl ester] (H-Asp-Phe-OMe)",6.5 min,–
"COC(=O)[C@H](Cc1ccccc1)NC(=O)[C@@H](N)CC(=O)O [Example 12, α-L-aspartyl-L-phenylalanine methyl ester] (H-Asp-Phe-OMe)",5.5 min,–
"COC(=O)[C@H](Cc1ccccc1)NC(=O)[C@@H](N)CC(=O)O [Example 13, α-L-aspartyl-L-phenylalanine methyl ester] (H-Asp-Phe-OMe)",5.5 min,–
"COC(=O)[C@H](Cc1ccccc1)NC(=O)[C@@H](N)CC(=O)O [Example 14, α-L-aspartyl-L-phenylalanine methyl ester] (H-Asp-Phe-OMe)",6.5 min,–
"COC(=O)[C@H](Cc1ccccc1)NC(=O)[C@@H](N)CC(=O)O [Example 15, α-L-aspartyl-L-phenylalanine methyl ester] (H-Asp-Phe-OMe)",5.5 min,–
"COC(=O)[C@H](Cc1ccccc1)NC(=O)[C@@H](N)CC(=O)O [Example 16, α-L-aspartyl-L-phenylalanine methyl ester] (H-Asp-Phe-OMe)",≤ 5 min,–
"COC(=O)[C@H](Cc1ccccc1)NC(=O)[C@@H](N)CC(=O)O [Example 17, α-L-aspartyl-L-phenylalanine methyl ester] (H-Asp-Phe-OMe)",≤ 5 min,–
"COC(=O)[C@H](Cc1ccccc1)NC(=O)[C@@H](N)CC(=O)O [Example 18, α-L-aspartyl-L-phenylalanine methyl ester] (H-Asp-Phe-OMe)",≤ 5 min,–
"COC(=O)[C@H](Cc1ccccc1)NC(=O)[C@@H](N)CC(=O)O [Example 19, α-L-aspartyl-L-phenylalanine methyl ester] (H-Asp-Phe-OMe)",–,"Solubilization (min), Table 2: 5.5 min"
"COC(=O)[C@H](Cc1ccccc1)NC(=O)[C@@H](N)CC(=O)O [Example 20, α-L-aspartyl-L-phenylalanine methyl ester] (H-Asp-Phe-OMe)",–,"Solubilization (min), Table 2: 5.5 min"
"COC(=O)[C@H](Cc1ccccc1)NC(=O)[C@@H](N)CC(=O)O [Example 21, α-L-aspartyl-L-phenylalanine methyl ester] (H-Asp-Phe-OMe)",–,"Solubilization (min), Table 2: 5.5 min"
"COC(=O)[C@H](Cc1ccccc1)NC(=O)[C@@H](N)CC(=O)O [Example 22, α-L-aspartyl-L-phenylalanine methyl ester] (H-Asp-Phe-OMe)",–,"Solubilization (min), Table 2: 5.0 min"
"COC(=O)[C@H](Cc1ccccc1)NC(=O)[C@@H](N)CC(=O)O [Example 23, α-L-aspartyl-L-phenylalanine methyl ester] (H-Asp-Phe-OMe)",≤ 5 min,–
"COC(=O)[C@H](Cc1ccccc1)NC(=O)[C@@H](N)CC(=O)O [compound 1, α-L-aspartyl-L-phenylalanine methyl ester, reference compound] (H-Asp-Phe-OMe)",12.5 min,–
"COC(=O)[C@H](Cc1ccccc1)NC(=O)[C@@H](N)CC(=O)O [compound 2, α-L-aspartyl-L-phenylalanine methyl ester, reference compound] (H-Asp-Phe-OMe)",11.5 min,–
"COC(=O)[C@H](Cc1ccccc1)NC(=O)[C@@H](N)CC(=O)O [compound 3, α-L-aspartyl-L-phenylalanine methyl ester, reference compound] (H-Asp-Phe-OMe)",12.5 min,–
"COC(=O)[C@H](Cc1ccccc1)NC(=O)[C@@H](N)CC(=O)O [compound 4, α-L-aspartyl-L-phenylalanine methyl ester, reference compound] (H-Asp-Phe-OMe)",13.5 min,–
"COC(=O)[C@H](Cc1ccccc1)NC(=O)[C@@H](N)CC(=O)O [compound 5, α-L-aspartyl-L-phenylalanine methyl ester, reference compound] (H-Asp-Phe-OMe)",–,"Solubilization (minutes), Table 1 (listed as Comp. Ex. 5): 12.5 min"
"COC(=O)[C@H](Cc1ccccc1)NC(=O)[C@@H](N)CC(=O)O [compound 6, α-L-aspartyl-L-phenylalanine methyl ester, reference compound] (H-Asp-Phe-OMe)",–,"Solubilization (minutes), Table 1 (listed as Comp. Ex. 6): 13.5 min"
